The values that follow come from patent US9957264B2 (Merck Sharp & Dohme Corp., priority 2013, dated 2018).

Molecules are shown by their SMILES.

For experiment [1], the target named is JAK1 (recombinant purified GST-tagged catalytic domain) (Homo sapiens (Human), UniProt P23458). Kind of experiment: Jak Biochemical HTRF Assay (JAK1). Conditions: [ATP] 31.8 μM. The essentials:
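HTRF kinase format: compounds pre-equilibrated with recombinant GST-tagged JAK1 or JAK2 catalytic domain, then ATP started a 120 min room-temperature reaction on a common peptide substrate. Phosphopeptide detected via Eu-pY20/streptavidin-Dylight 650 after EDTA quench; percent inhibition versus log concentration fitted (4-parameter) to give IC50.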

Experiment [2] addresses JAK2 (recombinant purified GST-tagged catalytic domain) (Homo sapiens (Human), UniProt O60674). Kind of experiment: Jak Biochemical HTRF Assay (JAK2). Conditions: [ATP] 8.5 μM.

JAK1 (recombinant purified GST-tagged catalytic domain), sequence (P23458 875-1153): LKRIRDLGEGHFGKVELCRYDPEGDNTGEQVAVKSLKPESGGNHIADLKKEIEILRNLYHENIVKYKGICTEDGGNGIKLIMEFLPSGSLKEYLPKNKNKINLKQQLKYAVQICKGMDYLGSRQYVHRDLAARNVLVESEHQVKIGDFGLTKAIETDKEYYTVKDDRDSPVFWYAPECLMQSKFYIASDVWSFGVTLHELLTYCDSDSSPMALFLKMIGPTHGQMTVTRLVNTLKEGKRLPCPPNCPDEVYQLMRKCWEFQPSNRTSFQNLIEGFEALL
JAK2 (recombinant purified GST-tagged catalytic domain), sequence (O60674 849-1124): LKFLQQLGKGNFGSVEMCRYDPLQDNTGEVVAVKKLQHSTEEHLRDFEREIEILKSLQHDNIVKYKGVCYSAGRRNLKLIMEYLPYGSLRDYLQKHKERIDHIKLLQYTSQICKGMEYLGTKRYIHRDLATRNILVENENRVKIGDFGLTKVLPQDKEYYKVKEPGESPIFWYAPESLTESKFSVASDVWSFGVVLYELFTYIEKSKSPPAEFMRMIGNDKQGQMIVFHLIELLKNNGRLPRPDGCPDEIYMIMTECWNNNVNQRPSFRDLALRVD

`CC(C)(C)OC(=O)[C@@H]1CC[C@](CC#N)(n2nc(Nc3ccc(S(C)(=O)=O)cc3)c3c(=O)[nH]ccc32)CO1` (single isomer, unassigned) [Example 5-37, (2R,5S or 2S,5R)-tert-butyl 5-(cyanomethyl)-5-(3-((4-(methylsulfonyl)phenyl)amino)-4-oxo-4,5-dihydro-1H-pyrazolo[4,3-c]pyridin-1-yl)tetrahydro-2H-pyran-2-carboxylate]: the figures for the IC50 in experiment [1] and in experiment [2] were 1.93 nM and 17.1 nM, respectively.

As for `N#CCC1(n2nc(Nc3ccc(Cl)cc3)c3c(=O)[nH]ccc32)CCC(O)CC1` (stereo not drawn) [Example 18-12, Cis and trans 2-(1-(3-((4-chlorophenyl)amino)-4-oxo-4,5-dihydro-1H-pyrazolo[4,3-c]pyridin-1-yl)-4-hydroxycyclohexyl)acetonitrile], the half-maximal inhibitory concentration (IC50) in experiment [1] was found to be 5.41 nM; in experiment [2] it was 38.5 nM.

Take `COC(=O)N1CCC(CC#N)(n2nc(Nc3ccc(C(F)(F)F)cc3)c3c(=O)[nH]ccc32)CC1` [Example 5-147, methyl 4-(cyanomethyl)-4-(4-oxo-3-((4-(trifluoromethyl)phenyl)amino)-4,5-dihydro-1H-pyrazolo[4,3-c]pyridin-1-yl)piperidine-1-carboxylate]: the values for the IC50 in experiment [1] and in experiment [2] were 0.32 nM and 2.95 nM, respectively.

Take `CC(C)(C)OC(=O)N1CC[C@](CC#N)(n2nc(Nc3ccc4c(c3)CN(CC(F)(F)F)S4(=O)=O)c3c(=O)[nH]ccc32)[C@H](F)C1` [Example 5-24, tert-butyl (3R,4R)-4-(cyanomethyl)-4-(3-{[1,1-dioxido-2-(2,2,2-trifluoroethyl)-2,3-dihydro-1,2-benzisothiazol-5-yl]amino}-4-oxo-4,5-dihydro-1H-pyrazolo[4,3-c]pyridin-1-yl)-3-fluoropiperidine-1-carboxylate]: the IC50 in experiment [1] was 0.2 nM; in experiment [2], 0.25 nM.

`CO[C@H](c1ccc(Nc2nn(C3(CC#N)CCN(C(=O)OC(C)(C)C)CC3)c3cc[nH]c(=O)c23)cc1)C(F)(F)F` (single isomer, unassigned) [Example 21-9, tert-butyl 4-(cyanomethyl)-4-[4-oxo-3-({4-[(1R or 1S)-2,2,2-trifluoro-1-methoxyethyl]phenyl}amino)-4,5-dihydro-1H-pyrazolo[4,3-c]pyridin-1-yl]piperidine-1-carboxylate]: the IC50 in experiment [1] amounted to 1.11 nM; in experiment [2] it was 1.96 nM.

For `CN1Cc2cc(Nc3nn([C@]4(CC#N)CC[C@@H](N(C)C)CC4)c4cc[nH]c(=O)c34)ccc2S1(=O)=O` [Example 18-34, Trans 2-(4-(Dimethylamino)-1-(3-((2-methyl-1,1-dioxido-2,3-dihydrobenzo-[d]isothiazol-6-yl)amino)-4-oxo-4,5-dihydro-1H-pyrazolo[4,3-c]pyridin-1-yl)cyclohexyl)acetonitrile], the figures for the IC50 in experiment [1] and in experiment [2] were 1.07 nM and 12.1 nM, respectively.

Consider `CCOC(=O)N1CCC(CC#N)(n2nc(Nc3ccc(S(=O)(=O)N(C)C)cc3)c3c(=O)[nH]ccc32)CC1` [Example 10-5, ethyl 4-(cyanomethyl)-4-(3-((4-(N,N-dimethylsulfamoyl)phenyl)amino)-4-oxo-4,5-dihydro-1H-pyrazolo[4,3-c]pyridin-1-yl)piperidine-1-carboxylate], for which the IC50 worked out at 0.12 nM in experiment [1] and 0.29 nM in experiment [2].

Regarding `CN(C(C)(C)C)S(=O)(=O)c1ccc(Nc2nn([C@]3(CC#N)CC[C@@H](C(=O)OC(C)(C)C)OC3)c3cc[nH]c(=O)c23)cc1` [Example 5-90, (2S,5S)-tert-butyl 5-(3-((4-(N-(tert-butyl)-N-methylsulfamoyl)phenyl)amino)-4-oxo-4,5-dihydro-1H-pyrazolo[4,3-c]pyridin-1-yl)-5-(cyanomethyl)tetrahydro-2H-pyran-2-carboxylate], the concentration for half-maximal inhibition (IC50) in experiment [1] stood at 0.33 nM; in experiment [2] it was 0.41 nM.
